From ChEMBL document CHEMBL3351767, “The discovery of Polo-like kinase 4 inhibitors: design and optimization of spiro[cyclopropane-1,3'[3H]indol]-2'(1'H).ones as orally bioavailable antitumor agents” (J Med Chem, 2015) come the findings set out here.

Data set [1] in a line: Half life in mouse liver microsomes at 1 uM in presence of NADPH by LC-MS method. The class given is ADME. In general terms: Microsomes from liver hold many membrane-bound enzymes, among them those of drug oxidation.
The nature of data set [2]: Aqueous solubility at pH 7.4. Conditions: buffer. The class given is physicochemical.
Data set [3] concerns the target T1, Serine/threonine-protein kinase PLK4 (Homo sapiens, UniProt O00444).
T1 sequence (O00444 whole entry): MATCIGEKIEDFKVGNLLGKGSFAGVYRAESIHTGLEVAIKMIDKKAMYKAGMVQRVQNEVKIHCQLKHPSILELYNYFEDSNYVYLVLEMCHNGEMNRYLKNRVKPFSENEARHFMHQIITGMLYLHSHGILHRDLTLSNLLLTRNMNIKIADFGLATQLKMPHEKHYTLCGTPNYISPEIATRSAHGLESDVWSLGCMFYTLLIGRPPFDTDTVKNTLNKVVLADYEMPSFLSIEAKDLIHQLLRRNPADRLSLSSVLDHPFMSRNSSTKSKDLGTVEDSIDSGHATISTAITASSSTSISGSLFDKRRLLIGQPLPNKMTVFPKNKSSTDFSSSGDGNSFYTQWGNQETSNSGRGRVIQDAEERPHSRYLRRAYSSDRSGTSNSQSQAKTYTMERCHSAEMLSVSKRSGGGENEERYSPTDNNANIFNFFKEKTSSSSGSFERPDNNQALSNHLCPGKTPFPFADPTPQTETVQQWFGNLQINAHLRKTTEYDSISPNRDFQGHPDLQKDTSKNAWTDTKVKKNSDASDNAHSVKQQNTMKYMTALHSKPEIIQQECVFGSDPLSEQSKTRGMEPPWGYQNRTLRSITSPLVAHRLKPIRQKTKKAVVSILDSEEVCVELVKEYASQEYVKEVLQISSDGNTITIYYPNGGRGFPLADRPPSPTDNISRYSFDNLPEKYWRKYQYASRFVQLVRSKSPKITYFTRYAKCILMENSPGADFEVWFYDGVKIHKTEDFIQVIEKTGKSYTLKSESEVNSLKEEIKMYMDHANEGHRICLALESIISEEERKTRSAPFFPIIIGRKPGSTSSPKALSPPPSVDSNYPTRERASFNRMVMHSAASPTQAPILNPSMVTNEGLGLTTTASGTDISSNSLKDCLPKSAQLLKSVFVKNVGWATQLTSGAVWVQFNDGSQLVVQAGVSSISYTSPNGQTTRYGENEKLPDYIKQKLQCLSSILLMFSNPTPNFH
The data set can be described thus: Inhibition of human N-terminal GST-tagged PLK4 (1 to 391 residues) expressed in Escherichia coli incubated for 30 mins by ELISA method. A general note: ELISA stands for enzyme-linked immunosorbent assay.

Data set [4] in a line: Cmax in SCID mouse at 50 mg/kg, ip after 8 hrs by LCMS/MS method. The class given is ADME, organism-based. Further details: dose 50 mg/kg, route intraperitoneal. The conditions noted are these: in vivo.
The next data set addresses Cytochrome P450 2C9 (Homo sapiens, UniProt P11712). The data set can be described thus: Inhibition of CYP2C9 (unknown origin) using MFC substrate after 45 mins by fluorescence assay. It is filed as ADME.
The target in the next data set is CYP2D6 (Homo sapiens, UniProt P10635). In words: Inhibition of CYP2D6 (unknown origin) using AMMC substrate after 45 mins by fluorescence assay. It is filed as ADME. Conditions: probe AMMC.
A further data set addresses Cytochrome P450 3A4 (Homo sapiens, UniProt P08684). In words: Inhibition of CYP3A4 (unknown origin) using BFC substrate after 30 mins by fluorescence assay. The class given is ADME.
The nature of data set [5]: Protein binding in plasma (unknown origin). The class given is ADME, cell-free. Conditions: read-out: PPB (converted).
The nature of data set [6]: Half life in human liver microsomes at 1 uM in presence of NADPH by LC-MS method. It is filed as ADME.
The nature of data set [7]: AUC in SCID mouse at 50 mg/kg, ip after 8 hrs by LCMS/MS method. The class given is ADME, organism-based. Further details: time < 8 hr, dose 50 mg/kg, route intraperitoneal. The conditions noted are these: plasma.
For another data set, the target named is Cytochrome P450 2C19 (Homo sapiens, UniProt P33261). In words: Inhibition of CYP2C19 (unknown origin) using MFC substrate after 30 mins by fluorescence assay. The class given is ADME.
The next data set has as its system MCF7. In words: Cytotoxicity against human MCF7 cells after 5 days by SRB assay. Conditions: MCF7, 120 h. It is filed as functional. (Sulforhodamine B stains cellular protein and so reports cell mass.)
Another data set addresses T2, CYP1A2 (Homo sapiens, UniProt P05177).
T2 sequence (P05177 whole entry): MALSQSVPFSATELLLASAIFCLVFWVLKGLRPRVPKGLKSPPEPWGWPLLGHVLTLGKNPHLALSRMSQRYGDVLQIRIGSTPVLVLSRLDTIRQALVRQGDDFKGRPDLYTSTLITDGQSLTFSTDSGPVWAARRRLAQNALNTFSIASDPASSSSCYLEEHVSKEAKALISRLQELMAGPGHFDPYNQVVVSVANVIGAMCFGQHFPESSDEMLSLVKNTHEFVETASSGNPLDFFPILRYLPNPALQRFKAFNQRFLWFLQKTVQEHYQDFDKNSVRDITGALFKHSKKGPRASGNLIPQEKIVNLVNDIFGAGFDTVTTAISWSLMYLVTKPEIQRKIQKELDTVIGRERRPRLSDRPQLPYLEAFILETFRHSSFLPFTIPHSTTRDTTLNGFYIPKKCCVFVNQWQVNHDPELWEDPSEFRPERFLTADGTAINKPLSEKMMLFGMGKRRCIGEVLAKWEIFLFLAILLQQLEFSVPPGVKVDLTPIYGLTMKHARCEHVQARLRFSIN
In words: Inhibition of CYP1A2 (unknown origin) using CEC substrate after 15 mins by fluorescence assay. The class given is ADME. The conditions noted are these: probe CEC.

In general, half-life refers to the time needed for the level to fall by half in the phase considered. A word on the solubility: it is the concentration that dissolves in the medium under given conditions. Low readings indicate little dissolved substance, high ones much dissolved substance. As usually defined, the IC50 is the concentration at which inhibition is half-maximal. The Cmax is the peak of the concentration-time curve. The AUC is concentration integrated over time. As a reminder, the GI50 is the concentration giving 50% growth inhibition.

Cytochrome P450 2C9, sequence (P11712 whole entry): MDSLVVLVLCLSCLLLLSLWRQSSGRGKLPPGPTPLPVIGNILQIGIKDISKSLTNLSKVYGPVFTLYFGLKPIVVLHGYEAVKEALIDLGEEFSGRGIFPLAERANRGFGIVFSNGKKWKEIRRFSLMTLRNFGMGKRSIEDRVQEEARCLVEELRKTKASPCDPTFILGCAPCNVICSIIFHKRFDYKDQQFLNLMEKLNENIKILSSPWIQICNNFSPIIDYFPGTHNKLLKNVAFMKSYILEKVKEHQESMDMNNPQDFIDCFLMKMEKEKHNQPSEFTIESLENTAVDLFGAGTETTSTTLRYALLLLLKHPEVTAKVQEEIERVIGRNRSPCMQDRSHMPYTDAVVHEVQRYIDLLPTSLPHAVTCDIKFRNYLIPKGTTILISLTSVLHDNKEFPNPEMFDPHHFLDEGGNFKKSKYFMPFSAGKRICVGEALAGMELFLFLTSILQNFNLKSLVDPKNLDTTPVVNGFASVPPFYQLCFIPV
Cytochrome P450 3A4, sequence (P08684 whole entry): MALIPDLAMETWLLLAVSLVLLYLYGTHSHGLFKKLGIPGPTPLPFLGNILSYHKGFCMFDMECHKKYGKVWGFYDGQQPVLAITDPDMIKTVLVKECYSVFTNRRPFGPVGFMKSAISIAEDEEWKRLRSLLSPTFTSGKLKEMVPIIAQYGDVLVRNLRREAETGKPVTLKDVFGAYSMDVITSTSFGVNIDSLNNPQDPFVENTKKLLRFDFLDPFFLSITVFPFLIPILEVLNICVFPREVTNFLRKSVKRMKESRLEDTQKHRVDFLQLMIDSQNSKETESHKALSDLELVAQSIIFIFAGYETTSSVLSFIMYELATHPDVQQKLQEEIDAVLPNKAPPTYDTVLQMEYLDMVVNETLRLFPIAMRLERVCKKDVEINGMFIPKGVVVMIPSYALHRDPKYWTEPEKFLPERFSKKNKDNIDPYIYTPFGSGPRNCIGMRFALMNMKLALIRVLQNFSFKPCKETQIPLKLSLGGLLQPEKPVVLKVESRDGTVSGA
CYP2D6, sequence (P10635 whole entry): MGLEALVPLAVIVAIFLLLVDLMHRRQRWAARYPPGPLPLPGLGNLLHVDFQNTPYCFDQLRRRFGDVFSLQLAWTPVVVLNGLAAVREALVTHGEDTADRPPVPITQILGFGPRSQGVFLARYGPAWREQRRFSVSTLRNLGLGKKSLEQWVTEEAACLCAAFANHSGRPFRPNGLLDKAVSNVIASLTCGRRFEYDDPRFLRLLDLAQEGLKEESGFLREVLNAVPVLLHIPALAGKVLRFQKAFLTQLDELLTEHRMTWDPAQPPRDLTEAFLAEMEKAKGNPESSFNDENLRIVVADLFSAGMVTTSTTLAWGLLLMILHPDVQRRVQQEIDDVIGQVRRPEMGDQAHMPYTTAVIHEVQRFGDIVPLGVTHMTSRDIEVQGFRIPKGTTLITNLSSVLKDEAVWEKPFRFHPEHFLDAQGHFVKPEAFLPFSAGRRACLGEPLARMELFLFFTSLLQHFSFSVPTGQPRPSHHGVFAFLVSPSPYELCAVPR
Cytochrome P450 2C19, sequence (P33261 whole entry): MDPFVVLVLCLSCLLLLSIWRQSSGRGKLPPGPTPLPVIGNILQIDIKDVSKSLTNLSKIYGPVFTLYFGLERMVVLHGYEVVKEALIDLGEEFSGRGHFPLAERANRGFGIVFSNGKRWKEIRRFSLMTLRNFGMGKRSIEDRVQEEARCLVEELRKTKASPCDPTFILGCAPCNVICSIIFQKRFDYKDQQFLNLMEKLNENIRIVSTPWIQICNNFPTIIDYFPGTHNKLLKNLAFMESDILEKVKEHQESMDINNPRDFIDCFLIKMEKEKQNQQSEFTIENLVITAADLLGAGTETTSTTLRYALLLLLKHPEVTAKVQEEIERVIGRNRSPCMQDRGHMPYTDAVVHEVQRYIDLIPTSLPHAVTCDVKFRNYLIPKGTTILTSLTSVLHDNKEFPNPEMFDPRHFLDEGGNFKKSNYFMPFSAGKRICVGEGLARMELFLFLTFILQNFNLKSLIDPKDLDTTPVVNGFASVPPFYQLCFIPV

In the case of `COc1ccc2c(c1)/C(=C\c1ccc3c(/C=C/c4ccc(N5CCN(C)CC5)nc4)n[nH]c3c1)C(=O)N2`, the figures for the half-life at 1 µM in data set [1] and in data set [6] were 2 min and 14 min, respectively. Further, the solubility in [2] was below 0.1 µg/mL. Further, the IC50 in [3] was 7.3 nM; on Cytochrome P450 2C9 it was 1600 nM; on Cytochrome P450 3A4, above 1000 nM; against Cytochrome P450 2C19, 800 nM. The compound further displayed a Cmax in data set [4] of 90 ng/mL. This compound also had an IC50 at 45 min against CYP2D6 above 10000 nM. In addition, in [5], the fraction unbound was 0.009. The compound also returned an AUC at 8 h in [7] of 190 ng·h/mL. The same compound returned a GI50 in the data set with MCF7 below 10 nM. The same compound gave a 50% inhibitory concentration (IC50) at 15 min against CYP1A2 above 10000 nM.
